Structures can show the parent of a compound that is named as a salt. Where two headings read alike, the source gives them in different places.
What was measured:
[1] = biological target: DNMT1 (Homo sapiens, UniProt P26358); experiment: DNMT1 biochemical activity, breaklight assay and/or SPA assay
[2] = biological target: human DNMT3a/3l (Homo sapiens (Human), UniProt Q9Y6K1); experiment: DNMT3a/3l breaklight assay; format: biochemical; conditions: read-out: DNMT3A Breaklight IC50
Protocol: DNMT3a/3l Breakliqht Assay
DNMT3a/3l breaklight in vitro assays were conducted in a total volume of 50 μl in a standard 384 well format, using black non-binding surface microplates (Corning #3575). […] Negative control wells used 5 μl of DNMT3a/3l and 5 μl of oligonucleotide but also included 200 μM SAH. All reagents were made up in 1× assay buffer (20 mM Tris pH 7.4, 100 mM NaCl, 1.5 mM EDTA, 0.1 mM MgCl2, 1 mM CHAPS and 1 mM DTT). The reaction was incubated at 37° C. for 90 min and then stopped with the addition of 40 μl detection reagent. Detection reagent, made up in 1× Gla assay buffer (20 mM Tris pH 8.0, 80 mM NaCl, 0.75 mM MgCl2, 0.01% Triton X100 and 1 mM DTT) has a final concentration of 200 μM SAH (Sigma #A9384) and 0.0008 units/μl Gla1 restriction endonuclease (Sibenzyme #E494). Following addition of the detection reagent the plate was incubated in the dark at room temperature for 5 hr. Fluorescence intensity was then measured on the PHERAstar FS (BMG Labtech) at Ex 485 nm and Em 520 nm, with a gain of 400 and an integration time of 100 ms.

[3] = tested on: MV-4-11 AML cells; experiment: MV-4-11 cell proliferation assay (CellTiter-Glo, 6 days); format: cell-based; conditions: Homo sapiens, MV4-11, 144 h; 6 days treatment; binning as pXC50; read-out: MV4-11 Anti-proliferative activity (EC50 category)
Protocol: MV-4-11 Anti-Proliferative Activity (pEC50 Category)
Cell proliferation assay. Optimal cell seeding density was determined empirically for MV-4-11 AML cells by examining the growth of a wide range of seeding densities in a 384-well format to identify conditions that permitted maximal and continued proliferation for 6 days. MV-4-11 cells were plated in duplicate plates 24 hours before treatment with a 20-point two-fold dilution series of compound or 0.15% DMSO. Plates were incubated for 6 days at 37° C. in 5% CO2. Cells were then lysed with CellTiter-Glo (CTG) (Promega) and chemiluminescent signal was detected with an appropriate microplate reader. In addition, an untreated plate of cells was harvested at the time of compound addition (T0) to quantify the initial cell density. CTG values obtained after 6 days of treatment were expressed as a percent of the T0 value and plotted against compound concentration. Data were fit with a four parameter equation to generate a concentration response curve from which growth IC50 values were calculated.

[4] = biological target: DNMT3B (Homo sapiens (Human), UniProt Q9UBC3); experiment: DNMT3B breaklight assay; format: biochemical; conditions: read-out: DNMT3B Breaklight IC50
[5] = tested on: erythroid progenitor cells (EPCs); experiment: Fetal hemoglobin (HbF) ELISA in day 7 erythroid progenitor cells; format: cell-based, human; conditions: Homo sapiens, Erythroid progenitor cell, HbF ELISA, day 7 EPCs, 5 days; read-out: EPC ELISA (pEC50 category) (converted);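 further: for fetal hemoglobin induction normalized to vehicle-treated cells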
Outline: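 HbF induction was read by anti-HbF sandwich ELISA (HRP/TMB, OD450) on lysates and normalized to vehicle-treated cells. Cells were day 7 erythroid progenitors derived from human bone marrow CD34+ cells, seeded at 1,000/well with 3 U/mL rhEPO. Compound was given for 5 days at 37 °C at final concentrations […].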

[6] = tested on: patients with sickle cell anemia, sickle cell disease and beta-thalassemia; conditions: limited set of clinical studies; cited from earlier work
[7] = tested on: erythroid progenitor cells; conditions: cited from earlier work
[8] = binned activity in either the breaklight or the SPA assay, read-out: DNMT1 BioChemical (pIC50 category) (converted)
[9] = binned activity in either the breaklight or the SPA assay

DNMT1, sequence (P26358 whole entry, looked up): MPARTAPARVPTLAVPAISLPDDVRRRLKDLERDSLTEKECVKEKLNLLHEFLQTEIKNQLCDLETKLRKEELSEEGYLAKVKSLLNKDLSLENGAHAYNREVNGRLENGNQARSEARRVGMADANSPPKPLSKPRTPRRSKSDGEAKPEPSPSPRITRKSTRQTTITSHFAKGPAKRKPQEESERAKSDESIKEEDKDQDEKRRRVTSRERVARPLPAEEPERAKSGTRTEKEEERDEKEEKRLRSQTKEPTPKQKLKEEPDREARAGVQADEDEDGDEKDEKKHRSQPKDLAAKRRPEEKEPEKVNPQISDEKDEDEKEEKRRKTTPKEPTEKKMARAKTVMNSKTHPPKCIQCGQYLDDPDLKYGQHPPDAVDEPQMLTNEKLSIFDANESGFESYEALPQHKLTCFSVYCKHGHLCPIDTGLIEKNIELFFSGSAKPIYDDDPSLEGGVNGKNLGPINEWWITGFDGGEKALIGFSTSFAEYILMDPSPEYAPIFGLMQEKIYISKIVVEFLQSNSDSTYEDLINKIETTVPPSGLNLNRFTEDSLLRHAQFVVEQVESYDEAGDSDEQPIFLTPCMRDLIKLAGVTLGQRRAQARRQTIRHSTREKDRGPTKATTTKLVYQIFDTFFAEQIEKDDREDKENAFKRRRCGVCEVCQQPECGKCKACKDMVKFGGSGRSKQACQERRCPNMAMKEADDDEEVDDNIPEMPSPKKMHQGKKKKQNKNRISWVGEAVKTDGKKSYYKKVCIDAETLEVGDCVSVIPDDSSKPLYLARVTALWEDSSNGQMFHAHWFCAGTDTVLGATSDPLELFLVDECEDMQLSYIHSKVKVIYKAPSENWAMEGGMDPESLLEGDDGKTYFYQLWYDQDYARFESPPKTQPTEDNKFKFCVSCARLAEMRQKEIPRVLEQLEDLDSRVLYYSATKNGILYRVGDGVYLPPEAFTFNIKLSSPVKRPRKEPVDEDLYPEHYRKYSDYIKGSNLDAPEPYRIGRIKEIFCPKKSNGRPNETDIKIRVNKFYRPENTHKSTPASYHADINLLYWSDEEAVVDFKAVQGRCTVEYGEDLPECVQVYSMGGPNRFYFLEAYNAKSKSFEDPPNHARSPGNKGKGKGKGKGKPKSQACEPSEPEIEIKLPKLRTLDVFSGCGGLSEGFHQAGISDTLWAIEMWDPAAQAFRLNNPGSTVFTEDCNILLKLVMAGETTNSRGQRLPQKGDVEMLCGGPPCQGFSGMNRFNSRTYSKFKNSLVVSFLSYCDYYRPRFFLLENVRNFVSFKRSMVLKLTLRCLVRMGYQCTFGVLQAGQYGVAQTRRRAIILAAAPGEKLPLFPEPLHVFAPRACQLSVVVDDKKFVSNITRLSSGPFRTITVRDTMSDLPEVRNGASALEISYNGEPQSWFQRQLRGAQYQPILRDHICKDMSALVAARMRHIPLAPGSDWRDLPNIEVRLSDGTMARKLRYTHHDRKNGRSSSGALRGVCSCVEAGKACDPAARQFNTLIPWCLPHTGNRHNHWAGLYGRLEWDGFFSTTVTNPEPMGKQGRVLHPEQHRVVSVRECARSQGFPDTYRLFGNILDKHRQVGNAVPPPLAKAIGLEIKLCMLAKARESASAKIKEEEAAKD
human DNMT3a/3l, sequence (Q9Y6K1 whole entry, looked up): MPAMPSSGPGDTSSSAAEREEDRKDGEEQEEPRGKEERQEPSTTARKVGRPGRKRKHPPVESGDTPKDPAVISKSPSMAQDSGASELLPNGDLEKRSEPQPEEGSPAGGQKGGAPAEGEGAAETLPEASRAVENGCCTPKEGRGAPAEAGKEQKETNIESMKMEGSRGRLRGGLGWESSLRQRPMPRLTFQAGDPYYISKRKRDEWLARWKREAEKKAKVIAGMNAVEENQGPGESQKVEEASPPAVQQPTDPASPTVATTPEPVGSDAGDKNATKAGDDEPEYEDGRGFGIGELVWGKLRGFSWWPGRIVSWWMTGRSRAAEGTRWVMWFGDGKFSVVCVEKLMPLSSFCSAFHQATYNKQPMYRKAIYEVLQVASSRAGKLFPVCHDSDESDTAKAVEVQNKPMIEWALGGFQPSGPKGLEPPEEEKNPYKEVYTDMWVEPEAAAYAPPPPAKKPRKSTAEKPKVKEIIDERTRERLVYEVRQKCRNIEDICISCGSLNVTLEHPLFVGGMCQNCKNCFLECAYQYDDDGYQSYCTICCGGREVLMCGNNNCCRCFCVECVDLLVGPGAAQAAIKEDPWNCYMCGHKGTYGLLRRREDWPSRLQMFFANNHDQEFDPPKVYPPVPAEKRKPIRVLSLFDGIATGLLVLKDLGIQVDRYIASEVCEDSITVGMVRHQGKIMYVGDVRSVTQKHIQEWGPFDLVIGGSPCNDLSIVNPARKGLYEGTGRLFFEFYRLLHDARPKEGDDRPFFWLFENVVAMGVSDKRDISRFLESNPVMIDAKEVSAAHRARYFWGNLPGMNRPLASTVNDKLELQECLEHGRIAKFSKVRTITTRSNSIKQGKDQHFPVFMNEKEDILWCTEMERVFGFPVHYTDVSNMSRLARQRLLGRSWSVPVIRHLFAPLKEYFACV
human DNMT3a/3l, sequence (Q9UJW3 whole entry partner, looked up): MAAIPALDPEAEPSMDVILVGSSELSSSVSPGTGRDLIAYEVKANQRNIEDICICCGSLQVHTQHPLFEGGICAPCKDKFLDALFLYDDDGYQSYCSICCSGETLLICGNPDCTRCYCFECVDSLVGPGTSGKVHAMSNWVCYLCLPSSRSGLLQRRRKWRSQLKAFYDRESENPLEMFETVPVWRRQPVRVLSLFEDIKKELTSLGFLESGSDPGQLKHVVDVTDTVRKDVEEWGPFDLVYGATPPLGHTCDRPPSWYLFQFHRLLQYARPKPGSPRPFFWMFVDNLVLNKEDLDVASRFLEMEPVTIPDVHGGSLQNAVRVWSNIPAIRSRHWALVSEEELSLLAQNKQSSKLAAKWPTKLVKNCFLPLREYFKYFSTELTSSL

Row | Structure (SMILES) | IC50 [1, 8] [nM] | EC50 [3] [nM] | EC50 [5] [nM] | DNMT1 BioChemical (pIC50 category) [1, 9] | other results
1 | N#Cc1c(SC(C(N)=O)c2ccccc2)nc(N2CCOCC2)c(C#N)c1C1CC1 (stereo not shown) [Example 130, 2-[(3,5-Dicyano-4-cyclopropyl-6-morpholino-2-pyridyl)sulfanyl]-2-phenyl-acetamide] | 316 to 1000 | 1000 to 31600 |  |  | IC50 ([1]; breaklight assay and/or SPA assay, repeated experimental runs, read-out: average pIC50 against DNMT1 (converted)): 316 to 1000 nM; IC50 [2]: > 500000 nM; IC50 [4]: > 500000 nM
2 | N#Cc1c(SC(C(N)=O)c2ccncc2)nc(N2CC[C@H](O)C2)c(C#N)c1C1CC1 (stereo partly drawn) [Example 34, 2-((3,5-dicyano-4-cyclopropyl-6-((S)-3-hydroxypyrrolidin-1-yl)pyridin-2-yl)thio)-2-(pyridin-4-yl)acetamide] | 316 to 1000 | 1000 to 31600 | 1000 to 31600 |  | 
3 | CN(C)C1CCCN(c2nc(SC(C(N)=O)c3ccccc3)c(C#N)c(C3CC3)c2C#N)C1 (stereo not shown) [Example 18, 2-((3,5-Dicyano-4-cyclopropyl-6-(3-(dimethylamino)piperidin-1-yl)pyridin-2-yl)thio)-2-phenylacetamide] |  | 1000 to 31600 | < 316 | D (Category D: ≥6.5) | 
4 | CCc1c(C#N)c(SC(C(N)=O)c2ccccc2)nc(N2CCC(C3CCNCC3)CC2)c1C#N (stereo not shown) [Example 122, 2-((6-([4,4′-Bipiperidin]-1-yl)-3,5-dicyano-4-ethylpyridin-2-yl)thio)-2-phenylacetamide; 2,2,2-trifluoroacetic acid] |  | 316 to 1000 | < 316 | D (Category D: ≥6.5) | average pIC50 against DNMT1 ([1]; breaklight assay and/or SPA assay, repeated experimental runs): > 6.5
5 | CCc1c(C#N)c(SC(C(N)=O)c2ccccc2)nc(N2CCC3(CNC3)C2)c1C#N (stereo not shown) [Example 44, 2-((3,5-Dicyano-4-ethyl-6-(2,6-diazaspiro[3.4]octan-6-yl)pyridin-2-yl)thio)-2-phenylacetamide] |  | 1000 to 31600 | 1000 to 31600 | D (Category D: ≥6.5) | 
6 | CCc1c(C#N)c(N[C@@H](C(N)=O)c2ccccc2)nc(N2CCCN(CCO)CC2)c1C#N [Example 114, (2R)-2-({3,5-Dicyano-4-ethyl-6-[4-(2-hydroxyethyl)-1,4-diazepan-1-yl]pyridin-2-yl}amino)-2-phenylacetamide] | 316 to 1000 | 1000 to 31600 | 1000 to 31600 |  | 
7 | N#Cc1c(SC(C(N)=O)c2ccccc2)nc(N2CCC(N3CCCC3)CC2)c(C#N)c1C1CC1 (stereo not shown) [Example 42, 2-((3,5-Dicyano-4-cyclopropyl-6-(4-(pyrrolidin-1-yl)piperidin-1-yl)pyridin-2-yl)thio)-2-phenylacetamide trifluoroacetate] |  | 316 to 1000 | < 316 | D (Category D: ≥6.5) | 
8 | CCc1c(C#N)c(S[C@@H](C(N)=O)c2ccccc2)nc(N(C)C)c1C#N [Example 64, (R)-2-((3,5-dicyano-6-(dimethylamino)-4-ethylpyridin-2-yl)thio)-2-phenylacetamide] |  | 316 to 1000 | < 316 |  | IC50 [4]: > 500000 nM
9 | CCc1c(C#N)c(SC(C(N)=O)c2ccccc2)nc(N2CCCN(CCO)CC2)c1C#N (stereo not shown) [Example 318, 2-((3,5-Dicyano-4-ethyl-6-(4-(2-hydroxyethyl)-1,4-diazepan-1-yl)pyridin-2-yl)thio)-2-phenylacetamide] |  | 316 to 1000 | < 316 | D (Category D: ≥6.5) | 
10 | N#Cc1c(SC(C(N)=O)c2ccncc2)nc(N2CCCNCC2)c(C#N)c1C1CC1 (stereo not shown) [Example 31, 2-((3,5-dicyano-4-cyclopropyl-6-(1,4-diazepan-1-yl)pyridin-2-yl)thio)-2-(pyridin-4-yl)acetamide] | 316 to 1000 | 1000 to 31600 | > 31600 |  | 
11 | CCc1c(C#N)c(SC(C(N)=O)c2ccccc2)nc(N(C)CC(N)=O)c1C#N (stereo not shown) [Example 145, 2-((6-((2-Amino-2-oxoethyl)(methyl)amino)-3,5-dicyano-4-ethylpyridin-2-yl)thio)-2-phenylacetamide] |  | < 316 | < 316 | D (Category D: ≥6.5) | 
12 | N#Cc1c(SC(C(N)=O)c2ccccc2)nc(N2CCCC(O)C2)c(C#N)c1C1CC1 (stereo not shown) [Example 164, 2-(3,5-Dicyano-4-cyclopropyl-6-(3-hydroxypiperidin-1-yl)pyridin-2-ylthio)-2-phenylacetamide] | 316 to 1000 | 1000 to 31600 | 316 to 1000 |  | 
13 | CCc1c(C#N)c(SC(C(N)=O)c2ccccc2)nc(N2CCN(CCN)CC2)c1C#N (stereo not shown) [Example 123, 2-((6-(4-(2-Aminoethyl)piperazin-1-yl)-3,5-dicyano-4-ethylpyridin-2-yl)thio)-2-phenylacetamide] |  | 1000 to 31600 | < 316 | D (Category D: ≥6.5) | 
14 | N#Cc1c(SC(C(N)=O)c2ccccc2)nc(N2CCCNCC2)c(C#N)c1C1CC1 (stereo not shown) [Example 4, 2-((3,5-dicyano-4-cyclopropyl-6-(1,4-diazepan-1-yl)pyridin-2-yl)thio)-2-phenylacetamide] |  | 1000 to 31600 | < 316 | D (Category D: ≥6.5) | 
15 | Nc1ncn([C@@H]2O[C@H](CO)[C@@H](O)[C@H]2O)c(=O)n1 [5-azacytidine] |  |  |  |  | fetal hemoglobin in patients [6]: caused increases in fetal hemoglobin; induction of fetal hemoglobin [7]: known inducers of fetal hemoglobin
16 | Nc1ncn([C@H]2C[C@H](O)[C@@H](CO)O2)c(=O)n1 [5-aza-2′-deoxycytidine (decitabine), 5-aza-2′-deoxycytidine] |  |  |  |  | fetal hemoglobin in patients [6]: caused increases in fetal hemoglobin; induction of fetal hemoglobin [7]: known inducers of fetal hemoglobin

Reference: patent US10975056B2 (GlaxoSmithKline Intellectual Property Development Limited, priority 2016, dated 2021)
